# Measured values taken from ChEMBL document CHEMBL1144290, “Discovery and structure-activity relationships of novel selective norepinephrine and dual serotonin/norepinephrine reuptake inhibitors” (Bioorg Med Chem Lett, 2005).
# What was measured:
# [1] = molecular target: Sodium-dependent dopamine transporter (Homo sapiens) (UniProt Q01959); experiment: Displacement of dopamine by the compound against dopamine transporter was determined at 1000 nM
# [2] = molecular target: Sodium-dependent serotonin transporter (Homo sapiens) (UniProt P31645); experiment: Displacement of serotonin by the compound against serotonin transporter was determined
# Sequence of Sodium-dependent serotonin transporter (Homo sapiens) (P31645 whole entry, looked up): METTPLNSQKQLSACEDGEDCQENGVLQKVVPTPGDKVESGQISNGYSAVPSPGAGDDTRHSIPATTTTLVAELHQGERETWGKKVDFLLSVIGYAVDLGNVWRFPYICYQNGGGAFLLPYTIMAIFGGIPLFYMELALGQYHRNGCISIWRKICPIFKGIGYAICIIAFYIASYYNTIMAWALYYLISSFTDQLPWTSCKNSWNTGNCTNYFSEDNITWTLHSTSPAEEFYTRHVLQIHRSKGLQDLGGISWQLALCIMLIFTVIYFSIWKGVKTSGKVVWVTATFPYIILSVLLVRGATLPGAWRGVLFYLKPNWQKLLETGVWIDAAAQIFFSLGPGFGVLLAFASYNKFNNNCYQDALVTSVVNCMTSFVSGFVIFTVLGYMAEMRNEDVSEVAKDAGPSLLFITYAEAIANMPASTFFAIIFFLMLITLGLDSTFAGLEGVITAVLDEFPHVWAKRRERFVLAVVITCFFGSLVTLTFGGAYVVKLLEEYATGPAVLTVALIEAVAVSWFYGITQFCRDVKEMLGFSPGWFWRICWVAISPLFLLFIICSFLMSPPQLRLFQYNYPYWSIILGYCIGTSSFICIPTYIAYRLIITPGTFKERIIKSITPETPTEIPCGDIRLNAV
# [3] = Inhibitory constant determined against Norepinephrine transporter
# [4] = Inhibitory constant against Serotonin transporter
# [5] = Inhibitory constant against Dopamine transporter
# Sequence of Sodium-dependent dopamine transporter (Homo sapiens) (Q01959 whole entry): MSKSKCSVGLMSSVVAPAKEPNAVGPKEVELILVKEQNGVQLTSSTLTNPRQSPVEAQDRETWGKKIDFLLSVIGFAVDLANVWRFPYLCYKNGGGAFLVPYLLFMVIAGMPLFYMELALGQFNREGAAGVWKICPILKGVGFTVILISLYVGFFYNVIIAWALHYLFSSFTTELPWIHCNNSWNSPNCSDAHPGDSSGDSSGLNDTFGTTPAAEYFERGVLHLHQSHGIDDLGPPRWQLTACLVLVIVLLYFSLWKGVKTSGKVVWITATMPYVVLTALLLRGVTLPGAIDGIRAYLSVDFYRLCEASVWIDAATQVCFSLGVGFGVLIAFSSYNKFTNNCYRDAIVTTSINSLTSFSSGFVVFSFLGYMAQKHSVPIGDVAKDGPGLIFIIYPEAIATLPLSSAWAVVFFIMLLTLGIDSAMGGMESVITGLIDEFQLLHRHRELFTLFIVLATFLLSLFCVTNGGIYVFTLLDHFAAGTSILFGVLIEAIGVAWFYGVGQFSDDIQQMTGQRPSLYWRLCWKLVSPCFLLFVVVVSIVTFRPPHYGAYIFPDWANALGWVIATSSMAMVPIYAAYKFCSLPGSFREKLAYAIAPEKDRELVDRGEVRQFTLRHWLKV
Ki [1],Ki [2],Ki [3],Ki [4],Ki [5],SMILES
> 200 nM,–,–,–,–,COc1ccccc1S[C@@H](c1ccccc1)[C@@H]1CNCCO1 (stereo in doubt; form 1) [listing 1 of 2 here]
> 200 nM,> 100 nM,–,–,–,CCOc1ccccc1O[C@@H](c1ccccc1)[C@@H]1CNCCO1
> 200 nM,> 100 nM,364 nM,–,–,Cc1ccc(S[C@@H](c2ccccc2)[C@@H]2CNCCO2)cc1
–,–,24.6 nM,1.5 nM,–,COc1ccccc1S[C@@H](c1ccccc1)[C@@H]1CNCCO1 (stereo in doubt; form 2) [listing 1 of 2 here]
–,–,1.7 nM,66.2 nM,–,COc1ccccc1S[C@@H](c1ccccc1)[C@@H]1CNCCO1 (stereo in doubt; form 1) [listing 2 of 2 here]
–,–,8.3 nM,0.2 nM,227 nM,Cc1ccccc1S[C@@H](c1ccccc1)[C@@H]1CNCCO1
–,–,10.7 nM,1.2 nM,–,COc1ccccc1S[C@@H](c1ccccc1)[C@@H]1CNCCO1 (stereo in doubt; 14) [listing 1 of 2 here]
> 200 nM,–,–,–,–,COc1ccccc1S[C@@H](c1ccccc1)[C@@H]1CNCCO1 (stereo in doubt; form 2) [listing 2 of 2 here]
–,–,17.6 nM,36 nM,522 nM,c1ccc(S[C@@H](c2ccccc2)[C@@H]2CNCCO2)cc1
> 200 nM,–,109 nM,3.2 nM,–,Cc1cccc(S[C@@H](c2ccccc2)[C@@H]2CNCCO2)c1
> 200 nM,–,–,–,–,COc1ccccc1S[C@@H](c1ccccc1)[C@@H]1CNCCO1 (stereo in doubt; 14) [listing 2 of 2 here]
